Activity calls are given as the source filed them. The calls are words filed in the database; no cut-off is given here.
molecular target: T1, Tubulin (Sus scrofa) (UniProt P02554+P02550); assay: Inhibition of tubulin polymerization in porcine brain at 20 uM
T1 sequence (P02550 whole entry, looked up): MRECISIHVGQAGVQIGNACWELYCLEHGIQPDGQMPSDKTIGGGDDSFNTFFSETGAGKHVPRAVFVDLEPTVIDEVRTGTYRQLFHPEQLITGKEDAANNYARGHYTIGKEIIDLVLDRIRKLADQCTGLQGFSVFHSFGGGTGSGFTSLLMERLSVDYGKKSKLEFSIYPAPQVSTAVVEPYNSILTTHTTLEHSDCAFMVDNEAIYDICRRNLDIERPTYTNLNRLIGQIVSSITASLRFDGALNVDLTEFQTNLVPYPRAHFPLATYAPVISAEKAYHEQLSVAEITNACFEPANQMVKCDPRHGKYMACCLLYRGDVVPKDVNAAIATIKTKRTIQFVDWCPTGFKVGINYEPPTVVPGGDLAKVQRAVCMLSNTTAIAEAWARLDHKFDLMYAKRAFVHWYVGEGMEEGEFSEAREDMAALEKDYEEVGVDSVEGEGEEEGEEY
T1 sequence (P02554 whole entry, looked up): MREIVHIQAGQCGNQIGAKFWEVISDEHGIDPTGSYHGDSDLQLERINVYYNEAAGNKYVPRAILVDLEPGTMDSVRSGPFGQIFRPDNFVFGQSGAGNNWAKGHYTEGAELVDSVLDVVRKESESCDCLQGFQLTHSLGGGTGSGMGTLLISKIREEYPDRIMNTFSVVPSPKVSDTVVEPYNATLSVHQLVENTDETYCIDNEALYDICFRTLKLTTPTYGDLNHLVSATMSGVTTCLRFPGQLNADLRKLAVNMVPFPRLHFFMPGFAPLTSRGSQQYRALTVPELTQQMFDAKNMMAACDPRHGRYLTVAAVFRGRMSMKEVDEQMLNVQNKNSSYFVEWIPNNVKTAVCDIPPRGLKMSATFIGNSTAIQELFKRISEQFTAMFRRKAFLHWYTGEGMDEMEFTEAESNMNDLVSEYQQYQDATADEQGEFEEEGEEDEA

Row | Compound | inhibition [%]
1 | CC(C)c1ccc([N+](=O)[O-])c(C(C)C)c1N1C(=O)c2c(F)c(F)c(F)c(F)c2C1=O | 10
2 | O=C1c2c(Cl)c(Cl)c(Cl)c(Cl)c2C(=O)N1c1ccccc1 | 6
3 | CO[C@@H](/C(C)=C/C=C/C(C)=C/c1coc(C)n1)[C@@H](C)[C@@H]1C[C@H](O)[C@@]2(C)O[C@@H]2/C=C/[C@@H](C)[C@H]2C[C@H](CC(=O)O2)C[C@@H]2O[C@H]2C(=O)O1 | 81
4 | CC(C)c1ccccc1N1C(=O)c2c(F)c(F)c(F)c(F)c2C1=O | 10
5 | CC(C)c1cccc(C(C)C)c1N1C(=O)c2c(F)ccc(F)c2C1=O | 78
6 | CCc1cccc(CC)c1N1C(=O)c2c(F)c(F)c(F)c(F)c2C1=O | 18
7 | Cc1cccc(C)c1N1C(=O)c2c(F)c(F)c(F)c(F)c2C1=O | 10
8 | CC(C)c1cccc(C(C)C)c1N1C(=O)c2ccccc2C1=O | 3
9 | CC(C)c1cccc(C(C)C)c1N1C(=O)c2c(F)c(F)c(F)c(F)c2C1=O | 71
10 | CCCc1cccc(CCC)c1N1C(=O)c2c(Cl)c(Cl)c(Cl)c(Cl)c2C1=O | 0
11 | CC(C)c1cccc(C(C)C)c1N1C(=O)c2ccc(F)cc2C1=O | 9
12 | O=C1c2c(F)c(F)c(F)c(F)c2C(=O)N1c1ccccc1 | 7
13 | CC(C)c1cc(Br)cc(C(C)C)c1N1C(=O)c2c(F)c(F)c(F)c(F)c2C1=O | 11
14 | CC(C)c1cccc(C(C)C)c1N1C(=O)c2cccc(F)c2C1=O | 73
15 | CC(C)c1cccc(C(C)C)c1N1C(=O)c2cc(F)c(F)cc2C1=O | 8
16 | Cc1cccc(C)c1N1C(=O)c2c(Cl)c(Cl)c(Cl)c(Cl)c2C1=O | 0

molecular target: Tubulin (Sus scrofa, UniProt P02554+P02550); assay: Inhibition of tubulin polymerization in porcine brain

Row | Compound | IC50 [µM]
17 | CC(C)c1cccc(C(C)C)c1N1C(=O)c2ccc(O)cc2C1=O | 6.9
18 | CC(C)c1cccc(C(C)C)c1N1C(=O)c2c(F)ccc(F)c2C1=O | 7.8
19 | CC(C)c1cccc(C(C)C)c1N1C(=O)c2c(F)c(F)c(F)c(F)c2C1=O | 16
20 | CC(C)c1cccc(C(C)C)c1N1C(=O)c2cccc(F)c2C1=O | 17

molecular target: T1, Tubulin (Sus scrofa); assay: Inhibition of tubulin depolymerization in porcine brain at 10 uM

Row | Compound | Activity
21 | CC(C)c1cccc(C(C)C)c1N1C(=O)c2c(F)ccc(F)c2C1=O | inactive

Source: ChEMBL document CHEMBL1149348, “Tubulin polymerization inhibitors with a fluorinated phthalimide skeleton derived from thalidomide” (Bioorg Med Chem Lett, 2006)
